The subject of the test is MCF‐7 human breast cancer cell line. The test is described as follows: cells. As to conditions: for IC50: 24 h. As for the experimental part: Using GraphPad Prism software, the IC50 values were determined (Figure 8). After conducting the MTT assay, the absorbance data was entered into the software to generate dose–response curves. The nonlinear regression analysis function, specifically log(inhibitor) verus normalized response was employed to calculate the IC50 values for each compound. This method allowed for accurate determination of the concentration required to inhibit 50% of cell viability.
The MTT assay (3‐[4,5‐dimethylthiazol‐2‐yl]‐2,5‐diphenyltetrazolium bromide) was employed to evaluate the anticancer potential of the synthesized compounds against the MCF‐7 human breast cancer cell line. MCF‐7 cells were seeded into a 96‐well plate at a density of 1 × 10^4 cells per well and allowed to adhere for 24 h. Subsequently, the cells were treated with the test compounds at concentrations of 0.1, 1, 2, 5, and 10 µM, prepared in plain Dulbecco's Modified Eagle Medium (DMEM) media. After 24 h of incubation, MTT solution (100 µg per well; Sigma‐Aldrich) was added, and the plates were incubated for an additional 3–4 h to allow the formation of formazan crystals. The resulting formazan was dissolved in DMSO, and absorbance was measured at 570 nm using a microplate reader.

For four compounds, IC50 and inhibition results are on record in publication PMC13052075, “Synthesis of 1,2,3,4‐Tetrahydroisoquinoline‐3‐Carboxylic Acid‐Embedded Decapeptides: In Silico Studies and In Vitro Evaluation Against Breast Cancer” (ChemistryOpen, 2025).

Non-standard residues stand in square brackets, D forms with d. Residues, ends and D or L forms follow the SMILES beside them. Tic = O=C(O)[C@@H]1Cc2ccccc2CN1

Compound `CC(C)C[C@H](NC(=O)[C@H](Cc1c[nH]c2ccccc12)NC(=O)[C@H](CO)NC(=O)[C@H](CCC(=O)O)NC(=O)[C@@H]1Cc2ccccc2CN1C(=O)[C@H](Cc1c[nH]cn1)NC(=O)[C@H](CCCCN)NC(=O)[C@H](CCCNC(=N)N)NC(=O)[C@H](CS)NC(=O)[C@@H](N)CCCCN)C(=O)O` [DEC‐3] (H-KCRKH[Tic]ESWL-OH) came in with an IC50 of 4.49 µM.

Consider `CC/C(=C(\c1ccccc1)c1ccc(OCCN(C)C)cc1)c1ccccc1` [Tamoxifen, tamoxifen], for which, where the note is “Homo sapiens, MCF7, 24 h, read-out: % Inhibition 0.1 µM”, the inhibition at 0.1 µM was found to be 14.1 ± 5.41%. For the same compound, the inhibition at 1 µM (Homo sapiens, MCF7, 24 h, read-out: % Inhibition 1 µM) is 29.6 ± 10.4%. The inhibition at 2 µM (Homo sapiens, MCF7, 24 h, read-out: % Inhibition 2 µM) is 38.2 ± 2.76%. For the same compound, for the setting “Homo sapiens, MCF7, 24 h, read-out: % Inhibition 5 µM”, the inhibition at 5 µM stood at 57.2 ± 5.99%. In addition, the inhibition at 10 µM (Homo sapiens, MCF7, 24 h, read-out: % Inhibition 10 µM) was determined as 92.21 ± 0.73%.

For the compound `CC(C)C[C@H](NC(=O)[C@H](Cc1c[nH]c2ccccc12)NC(=O)[C@H](CO)NC(=O)[C@H](CCC(=O)O)NC(=O)[C@@H]1Cc2ccccc2CN1C(=O)[C@H](Cc1c[nH]cn1)NC(=O)[C@H](CCCNC(=N)N)NC(=O)[C@H](CCCCN)NC(=O)[C@H](CS)NC(=O)[C@@H](N)CCCNC(=N)N)C(=O)O` [DEC‐2] (H-RCKRH[Tic]ESWL-OH), the IC50 was 6.1 µM. This lies in the single-digit micromolar range.

`CC(C)C[C@H](NC(=O)[C@H](Cc1c[nH]c2ccccc12)NC(=O)[C@H](CO)NC(=O)[C@H](CCC(=O)O)NC(=O)[C@@H]1Cc2ccccc2CN1C(=O)[C@H](CCCCN)NC(=O)[C@H](Cc1c[nH]cn1)NC(=O)[C@H](CCCNC(=N)N)NC(=O)CNC(=O)[C@@H](N)Cc1c[nH]cn1)C(=O)O` [DEC‐1] (H-HGRHK[Tic]ESWL-OH) registered an IC50 of 3.38 µM.

By IC50 is commonly meant the point on the concentration scale where inhibition reaches its midpoint. In general, inhibition refers to the share of the control response that was lost under treatment.
